Columns and labels:
diabetic rats = assay: glycemic response to an oral glucose administration after intranasal insulin formulations; format: in vivo; details: 10 U/kg insulin intranasal, compared with acetate buffer
Protocol: Diabetic rats which had fasted overnight were used to carry out this experiment. Each of the preparations described in Example 7 was nasally administered to them. After one hour, each group of rats received an oral glucose administration of 2 g per each kg of body mass. The blood sugar was measured in blood from samples collected from the tail vein before the glucose administration and after 10, 20, 30, 60, 90 and 120 minutes.

[1] = tested on: streptozotocin diabetic male Wistar rats; assay: blood sugar after intranasal administration of insulin formulations in diabetic rats; format: in vivo; details: 10 U/kg insulin intranasal, compared with acetate buffer or with chitosan-PEG nanoparticles
Protocol: To encapsulate insulin in the chitosan nanoparticles, 2.4 mg of insulin were previously dissolved in an NaOH solution to which 1.2 mL of TPP were later added. This mixture was later added to 3 mL of chitosan. After 5 min with magnetic stirring, the preparation was centrifuged at 10,000 g for 40 min. The supernatant was removed and the precipitate was dissolved in a buffer. For its part, the same process was carried out to prepare the chitosan-PEG nanoparticles, but adding 10 mg/mL of PEG 400 to 2 mg/mL of chitosan.
The rats were considered diabetic when the blood sugar concentration was greater than 400 mg/dl after three weeks of the treatment with streptozotocin.
Fasting rats were used to carry out this experiment. They were divided into different groups depending on the formulation which was to be administered to them. […]
To determine the blood glucose levels, blood samples were collected from the tail vein before the nasal administration and every quarter of an hour until 90 minutes were completed. […] The blood glucose level was immediately determined using a glucose analyzer (Prestige from Chronolyss). […]

Substance: insulin
- effect on glycemic response to oral glucose (in words) (diabetic rats): did not significantly change this result
- effect on blood sugar (in words) [1]: did not significantly change the previous result

Reference: patent US20080095810A1, “Nanoparticles Of Chitosan And Polyethyleneglycol As A System For The Administration Of Biologically-Active Molecules” (Advanced In Vitro Cell Technologies, S.L., priority 2005, published 2008)
